The record followed here is ChEMBL document CHEMBL1141632, “Synthesis and evaluation of novel 3,4,6-substituted 2-quinolones as FMS kinase inhibitors” (Bioorg Med Chem Lett, 2008).

Data set [1] concerns the target T1, Receptor-type tyrosine-protein kinase FLT3 (Homo sapiens, UniProt P36888).
T1 sequence (P36888 whole entry): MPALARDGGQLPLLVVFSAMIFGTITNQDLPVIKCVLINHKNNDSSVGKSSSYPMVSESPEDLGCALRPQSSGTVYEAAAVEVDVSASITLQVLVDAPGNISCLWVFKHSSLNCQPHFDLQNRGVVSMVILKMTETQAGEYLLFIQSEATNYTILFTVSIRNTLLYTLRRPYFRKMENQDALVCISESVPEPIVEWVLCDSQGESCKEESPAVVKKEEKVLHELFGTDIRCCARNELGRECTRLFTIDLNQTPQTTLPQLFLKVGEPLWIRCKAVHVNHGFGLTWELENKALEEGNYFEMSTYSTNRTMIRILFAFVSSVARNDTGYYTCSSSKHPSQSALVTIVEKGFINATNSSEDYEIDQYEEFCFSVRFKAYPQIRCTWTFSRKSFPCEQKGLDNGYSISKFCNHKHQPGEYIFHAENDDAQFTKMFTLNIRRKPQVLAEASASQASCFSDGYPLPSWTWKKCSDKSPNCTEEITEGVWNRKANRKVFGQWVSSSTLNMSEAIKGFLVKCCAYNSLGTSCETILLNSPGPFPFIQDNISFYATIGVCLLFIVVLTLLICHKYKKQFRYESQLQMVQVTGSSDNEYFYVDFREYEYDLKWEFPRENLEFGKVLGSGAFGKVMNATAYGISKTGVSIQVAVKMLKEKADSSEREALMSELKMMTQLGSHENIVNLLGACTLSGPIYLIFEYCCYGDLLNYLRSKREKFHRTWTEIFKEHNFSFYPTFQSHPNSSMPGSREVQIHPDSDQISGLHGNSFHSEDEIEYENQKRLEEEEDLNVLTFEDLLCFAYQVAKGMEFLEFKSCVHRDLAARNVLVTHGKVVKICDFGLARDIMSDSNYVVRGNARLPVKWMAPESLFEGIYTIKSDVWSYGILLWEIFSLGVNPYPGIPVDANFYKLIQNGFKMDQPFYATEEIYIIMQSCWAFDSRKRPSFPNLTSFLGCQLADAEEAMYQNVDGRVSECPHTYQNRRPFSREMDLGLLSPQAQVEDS
As to the kind of experiment: Inhibition of FLT3.

Data set [2] can be described thus: Cmax in rat at 2 mg/kg, iv and 10 mg/kg, po. Type of data set: ADME, organism-based. The settings on record: in vivo.
The nature of data set [3]: Clearance in rat at 2 mg/kg, iv and 10 mg/kg, po. The conditions noted are these: in vivo. The format is ADME, organism-based.
The target of data set [4] is Platelet-derived growth factor receptor beta (Homo sapiens, UniProt P09619). Description: Inhibition of PDGFRbeta.
Platelet-derived growth factor receptor beta, sequence (P09619 whole entry): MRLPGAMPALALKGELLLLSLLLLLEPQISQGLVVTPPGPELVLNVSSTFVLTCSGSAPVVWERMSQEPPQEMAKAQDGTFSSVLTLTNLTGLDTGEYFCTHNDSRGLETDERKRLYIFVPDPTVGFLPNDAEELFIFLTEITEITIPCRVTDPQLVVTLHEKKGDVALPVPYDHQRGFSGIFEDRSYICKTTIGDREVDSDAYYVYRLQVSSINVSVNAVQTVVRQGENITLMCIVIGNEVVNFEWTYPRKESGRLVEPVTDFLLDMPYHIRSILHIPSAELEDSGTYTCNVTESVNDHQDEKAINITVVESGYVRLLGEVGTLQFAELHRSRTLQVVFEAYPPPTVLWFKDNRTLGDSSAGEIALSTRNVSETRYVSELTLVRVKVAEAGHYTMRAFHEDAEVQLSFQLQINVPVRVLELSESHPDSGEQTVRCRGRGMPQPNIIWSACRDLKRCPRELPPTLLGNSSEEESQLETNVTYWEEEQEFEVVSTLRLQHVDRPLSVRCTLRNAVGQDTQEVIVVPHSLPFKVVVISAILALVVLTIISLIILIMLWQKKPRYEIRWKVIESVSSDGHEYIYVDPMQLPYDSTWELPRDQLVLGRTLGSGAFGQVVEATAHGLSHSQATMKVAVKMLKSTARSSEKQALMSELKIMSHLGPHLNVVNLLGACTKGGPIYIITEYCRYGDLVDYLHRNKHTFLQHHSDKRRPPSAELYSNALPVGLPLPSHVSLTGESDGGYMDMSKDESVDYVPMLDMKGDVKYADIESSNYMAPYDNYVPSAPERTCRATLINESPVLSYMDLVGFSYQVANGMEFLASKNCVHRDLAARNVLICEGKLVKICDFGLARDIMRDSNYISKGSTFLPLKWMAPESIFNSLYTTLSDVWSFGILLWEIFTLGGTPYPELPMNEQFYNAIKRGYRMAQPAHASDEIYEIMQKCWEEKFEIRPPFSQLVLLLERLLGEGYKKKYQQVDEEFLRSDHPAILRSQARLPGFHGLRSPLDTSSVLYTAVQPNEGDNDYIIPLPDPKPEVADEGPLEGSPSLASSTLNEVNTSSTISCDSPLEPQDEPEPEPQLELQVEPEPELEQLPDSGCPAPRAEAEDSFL
The nature of data set [5]: Oral bioavailability in rat at 10 mg/kg. The settings on record: in vivo. The format is ADME, organism-based.
Data set [6] in a line: Half life in rat at 2 mg/kg, iv and 10 mg/kg, po. Type of data set: ADME, organism-based. The settings on record: in vivo.
The nature of data set [7]: Volume of distribution in rat at 2 mg/kg, iv and 10 mg/kg, po. The format is ADME, organism-based. The conditions noted are these: in vivo.
Data set [8] has as its target Mast/stem cell growth factor receptor Kit (Homo sapiens, UniProt P10721). Description: Inhibition of KIT.
The target of data set [9] is T2, Macrophage colony-stimulating factor 1 receptor (Homo sapiens, UniProt P07333). Description: Inhibition of human cytoplasmic macrophage colony-stimulating factor 1 receptor by fluorescence polarization.
T2 sequence (P07333 whole entry): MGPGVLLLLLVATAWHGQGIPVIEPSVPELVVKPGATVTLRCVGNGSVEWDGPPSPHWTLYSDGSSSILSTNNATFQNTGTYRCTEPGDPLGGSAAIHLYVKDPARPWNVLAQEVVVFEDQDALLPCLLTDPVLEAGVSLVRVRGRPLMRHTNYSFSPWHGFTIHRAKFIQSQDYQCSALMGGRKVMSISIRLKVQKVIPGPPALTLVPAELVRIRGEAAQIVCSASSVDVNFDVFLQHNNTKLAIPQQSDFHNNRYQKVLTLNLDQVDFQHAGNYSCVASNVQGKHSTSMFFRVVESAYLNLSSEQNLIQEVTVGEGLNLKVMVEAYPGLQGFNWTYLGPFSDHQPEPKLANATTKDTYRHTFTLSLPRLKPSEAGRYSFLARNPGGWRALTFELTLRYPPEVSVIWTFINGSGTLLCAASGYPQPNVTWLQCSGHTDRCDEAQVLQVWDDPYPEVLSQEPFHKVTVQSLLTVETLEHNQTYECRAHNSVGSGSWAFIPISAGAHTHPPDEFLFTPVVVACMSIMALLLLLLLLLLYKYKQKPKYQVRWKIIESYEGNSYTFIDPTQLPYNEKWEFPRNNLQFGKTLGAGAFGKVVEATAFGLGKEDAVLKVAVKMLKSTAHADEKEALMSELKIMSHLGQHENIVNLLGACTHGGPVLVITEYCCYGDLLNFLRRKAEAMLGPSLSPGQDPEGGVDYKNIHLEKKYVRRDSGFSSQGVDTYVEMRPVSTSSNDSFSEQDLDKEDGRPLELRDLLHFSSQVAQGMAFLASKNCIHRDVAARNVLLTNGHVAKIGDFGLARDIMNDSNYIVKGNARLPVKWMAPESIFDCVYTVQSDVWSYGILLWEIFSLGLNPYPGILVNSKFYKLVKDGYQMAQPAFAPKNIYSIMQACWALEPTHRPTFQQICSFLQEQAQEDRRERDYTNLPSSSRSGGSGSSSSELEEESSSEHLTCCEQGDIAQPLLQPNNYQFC
Data set [10] can be described thus: Inhibition of CSF1-induced human BMDM cell proliferation. The format is functional, cell-based.
In data set [11] the target is T2, Macrophage colony-stimulating factor 1 receptor. Description: Inhibition of human cytoplasmic macrophage colony-stimulating factor 1 receptor at 5 uM by fluorescence polarization. (In fluorescence polarisation assays a small probe gives low polarisation when free and higher when bound to something large.)
In data set [12] the test system is Mus musculus. As to the kind of experiment: Inhibition of FMS in B6C3F1 mouse assessed as reduction in CSF1-induced C-fos levels at 20 mg/kg, po. Type of data set: functional, organism-based. Further details: dose 20 mg/kg.
In data set [13] the test system is Mus musculus. Description: Inhibition of FMS in B6C3F1 mouse assessed as reduction in CSF1-induced C-fos levels at 50 mg/kg, po. Type of data set: functional, organism-based. Further details: dose 50 mg/kg.
Data set [14] relates to Mus musculus. Description: Inhibition of FMS in B6C3F1 mouse assessed as reduction in CSF1-induced C-fos levels at 5 mg/kg, po. The format is functional, organism-based. The arrangement: dose 5 mg/kg.

The structures appear in SMILES notation. Active and inactive are the calls of the source. The calls are words filed in the database; no cut-off is given here. Where only a bound is given, the exact number is not on record here.

Usually IC50 stands for the concentration that inhibits the measured activity by half. What is called Cmax is the peak of the concentration-time curve. As a reminder, the bioavailability is the share of a dose that reaches the circulation, judged against a reference dose that is usually intravenous. One may read the half-life as the time in which the quantity being followed falls by half. A high value points to slow decline. Usually inhibition stands for the percentage by which the read-out fell short of the control. Read a low inhibition as a response near the control.

Mast/stem cell growth factor receptor Kit, sequence (P10721 whole entry): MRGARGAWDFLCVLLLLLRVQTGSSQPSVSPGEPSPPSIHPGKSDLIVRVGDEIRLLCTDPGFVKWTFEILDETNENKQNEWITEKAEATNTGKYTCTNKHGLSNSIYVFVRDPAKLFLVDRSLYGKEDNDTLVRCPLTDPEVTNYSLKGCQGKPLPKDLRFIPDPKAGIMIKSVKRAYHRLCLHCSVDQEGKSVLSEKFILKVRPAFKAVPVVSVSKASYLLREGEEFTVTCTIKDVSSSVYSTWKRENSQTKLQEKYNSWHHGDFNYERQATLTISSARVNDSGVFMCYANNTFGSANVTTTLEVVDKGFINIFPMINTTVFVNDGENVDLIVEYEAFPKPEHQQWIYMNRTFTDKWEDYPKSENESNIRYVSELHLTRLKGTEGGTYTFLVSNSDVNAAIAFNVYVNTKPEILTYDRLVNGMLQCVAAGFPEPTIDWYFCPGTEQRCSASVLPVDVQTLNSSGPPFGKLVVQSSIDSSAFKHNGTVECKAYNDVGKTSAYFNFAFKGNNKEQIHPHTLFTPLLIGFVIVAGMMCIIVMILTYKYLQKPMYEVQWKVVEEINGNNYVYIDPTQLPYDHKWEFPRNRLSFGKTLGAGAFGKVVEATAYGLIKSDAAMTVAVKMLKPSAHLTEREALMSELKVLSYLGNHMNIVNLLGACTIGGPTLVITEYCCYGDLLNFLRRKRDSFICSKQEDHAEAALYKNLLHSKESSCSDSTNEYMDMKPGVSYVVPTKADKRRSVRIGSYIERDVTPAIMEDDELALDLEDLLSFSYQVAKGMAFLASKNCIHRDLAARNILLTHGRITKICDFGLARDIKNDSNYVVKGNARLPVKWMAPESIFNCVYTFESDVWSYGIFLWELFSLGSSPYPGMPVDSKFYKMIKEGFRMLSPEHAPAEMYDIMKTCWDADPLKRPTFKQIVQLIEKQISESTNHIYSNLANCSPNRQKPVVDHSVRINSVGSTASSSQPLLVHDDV

Take `CCc1ccc(-c2c(-c3c[nH]c(C)n3)c(=O)[nH]c3ccc(C#N)cc23)cc1`: the IC50 in data set [1] was 47 nM; in data set [4] it was greater than 1000 nM; in data set [8], 170 nM. This molecule also registered a Cmax in [2] of 317 ng/mL. Moreover, the clearance in data set [3] was 93 mL/min/kg. In [5], the bioavailability is 56%. The molecule further returned a half-life in data set [6] of 1.07 h. The Vd in data set [7] stood at 8.6 L/kg.
`Cc1cc(-c2c(-c3ccccc3)c3cc(N)ccc3[nH]c2=O)on1`: the IC50 in [9] was greater than 5000 nM.
For the molecule `CCc1ccc(-c2c(-c3cnc(C)[nH]3)c(=O)[nH]c3ccc(Cl)cc23)cc1`, the IC50 was 34 nM in data set [1], greater than 1000 nM in [4], 28 nM in data set [10] and 67 nM in [8].
Take `Cc1cc(-c2c(-c3ccccc3)c3cnccc3[nH]c2=O)on1`: the inhibition in data set [11] came out at 8%.
On to `Cc1cc(-c2c(-c3ccccc3)c3ccccc3[nH]c2=O)on1`, for which the IC50 in data set [9] is greater than 5000 nM.
The same measure, in the same setting: as for `Cc1cc(-c2c(-c3ccccc3)c3ncccc3[nH]c2=O)on1`, the figure is greater than 20000 nM.
The molecule `CCc1ccc(-c2c(-c3cnc(C)[nH]3)c(=O)[nH]c3ccc(C#N)cc23)cc1` registered a concentration for half-maximal inhibition (IC50) in data set [10] of 5 nM. Also, the result in the data set with Mus musculus [12], in the data set on Mus musculus [13] and with Mus musculus [14] was Active.
